Our source for the IC50 values is patent publication EP0314011A2, “Purine derivatives” (F. HOFFMANN-LA ROCHE AG, priority 1987, dated 1989).

In general, IC50 refers to the concentration at which inhibition is half-maximal. Read a low IC50 as inhibition by little substance.

The experiment concerns HTLV III. The experiment in a line: Anti-HIV activity: p24 antigen capture assay in HTLV III-infected C8166 cells. It is filed as cell-based. The note with it: concentration giving 50% protection; C8166 cells (human CD4+ T-lymphoblast line) infected with 10-fold TCD50 of virus; 72 h incubation at 37°C; viral protein 24 antigen in supernatant. Here is the method:
Die Aktivität der Purinderivate der vorliegenden Erfindung gegen HIV kann wie folgt nachgewiesen werden.
In diesem Versuch verwendet man HTLV III, gezüchtet in C8166-Zellen (eine menschliche CD4⁺ T-Lymphoblastenlinie), RPM1 1640 Medium mit Bicarbonatpuffer, Antibiotika und l0%igem fötalem Rinderserum. Eine Zellensuspension wird mit der 10-fachen TCD₅₀ des Virus infiziert. Man lässt 90 Minuten bei 37°C adsorbieren. Die Zellen werden mit dem Medium gewaschen. Der Versuch wird in 6 ml Gewebekulturröhrchen durchgeführt. Jedes Röhrchen enthält 2 x 10⁵ infizierte Zellen in 1,5 ml Medium. Es werden 15 µl einer Lösung der Substanz in wässrigem Medium oder in DMSO zugesetzt. Nach 72 Stunden Inkubation bei 37°C in einer feuchten 5% CO₂ enthaltenden Atmosphäre werden die Kulturen zentrifugiert. Ein aliquoter Teil des Ueberstandes wird solubilisiert und einem Antigenabfangversuch unterworfen unter Verwendung eines primären Antiserums mit besonderer Reaktivität gegen virales Protein 24 und eines Meerrettich-Peroxidase-Detektionssystems. Die Farbenerzeugung wird spektrophotometrisch gemessen und in Abhängigkeit der Konzentration der Testsubstanz dargestellt. Die einen 50%igen Schutz erzeugende Konzentration (IC₅₀) wird ermittelt. Die Resultate sind in der folgenden Tabelle angegeben: […]

Regarding `Nc1nc(Cl)nc2c1ncn2[C@@H]1O[C@H](CO)C[C@@H]1F` [Beispiel 1, 6-Amino-2-chlor-9-(2,3-dideoxy-2-fluor-β-D-threopentofuranosyl)-9H-purin], the IC50 amounted to 1 µM. In turn, `[N-]=[N+]=Nc1nc(N)c2ncn([C@@H]3O[C@H](CO)C[C@@H]3F)c2n1` [Beispiel 2, 6-Amino-2-azido-9-(2,3-dideoxy-2-fluor-β-D-threopentofuranosyl)-9H-purin] returned an IC50 of 10 µM. This IC50 is about 10-fold higher than that of the compound before.

As to `Nc1nc(N)c2ncn([C@@H]3O[C@H](CO)C[C@@H]3F)c2n1` [Beispiel 3, 2,6-Diamino-9-(2,3-dideoxy-2-fluor-β-D-threopentofuranosyl)-9H-purin], the IC50 was 1 µM. Compared with the last compound, the IC50 is about 10-fold lower.
